Legend:
[1] = test system: UTI MRSA urease; experiment: UTI MRSA urease activity assay; type: cell-based, Staphylococcus aureus; settings: whole cell, urease broth
Experimental: 190 Omega and visualization was carried out using ESPript 3.0 (69), enabling comparison across
191 different clinical isolates. Urease genes, including the full operon from ureA to ureR, were
192 identified and extracted from the prokka annotated genomes. The extracted protein sequences
193 were subjected to sequence alignment using Clustal Omega and visualization was carried out
194 using ESPript 3.0 [8], enabling comparison across different clinical isolates.
195 UTI MRSA urease activity assay. The UTI MRSA urease assay was adapted from a recently-
196 published semi quantitative assay to measure urease activity in bacterial species with low overall
197 activity under standard conditions (50). Dampening metabolites were directly dissolved in urease
198 broth (1 g tryptone (RPI; CAS No. 91079-40-2), 1 g D(+)-glucose (RPI; CAS No. 50-99-7), 2 g
199 potassium phosphate monobasic anhydrous (VWR; Lot: 20C1356567), 5 g sodium chloride
201 of MilliQ water, pH 5.5, sterilized via autoclaving). UTI MRSA strains from overnight cultures
202 were harvested by centrifugation for 5 minutes at 10,000 g, washed with 1 volume of 1X
203 Phosphate Buffered Saline (PBS), and resuspended in urease broth. Bacterial cultures were […]
205 measured at 415 nm, 560 nm, and 600 nm every 20 mins for 24 hours, shaking at 37°C using a
206 BioTek Synergy|H1 microtiter plate reader. Urease activity was calculated by dividing the OD […]

[2] = parameters: method as in PMID 9792207; settings: administered into the lateral ventricle; cited from earlier work
[3] = parameters: method as in PMID 9792207; settings: intraperitoneal injections; cited from earlier work

| SMILES | urease activity in MRSA [1] | blood pressure in cats [2] | effects in mice [3] |
| --- | --- | --- | --- |
| O.O=C(O)[C@H](O)Cc1cnc[nH]1 [D-imidazole lactate, D-imidazolelactic acid hydrate] | least potent |  |  |
| Cl.O=C(O)Cc1cnc[nH]1 [4-imidazole acetate, 2-(1H-Imidazol-5-yl)acetic acid hydrochloride] |  | dose-dependent decrease in blood pressure | sleep-like state and a decrease in body temperature |

Source: article PMC12583827, “Harnessing microbial-derived metabolites in the urinary tract to prevent infection induced catheter encrustation” (Nature Communications, 2025)
